Reference: BindingDB's records for doi:10.1002/1098-2396(20010101)39:1 (Nih, 2001)
Where “and” joins values, the source holds several entries; their conditions need not be identical. Equal values may be shown once.

Key:
[1] = molecular target: Norepinephrine transporter (Rattus norvegicus, UniProt Q9JIA2)
[2] = molecular target: Sodium-dependent serotonin transporter (Rattus norvegicus, UniProt P31652)
[3] = molecular target: Sodium-dependent dopamine transporter (Rattus norvegicus, UniProt P23977)
Sequence of Sodium-dependent dopamine transporter (P23977 whole entry): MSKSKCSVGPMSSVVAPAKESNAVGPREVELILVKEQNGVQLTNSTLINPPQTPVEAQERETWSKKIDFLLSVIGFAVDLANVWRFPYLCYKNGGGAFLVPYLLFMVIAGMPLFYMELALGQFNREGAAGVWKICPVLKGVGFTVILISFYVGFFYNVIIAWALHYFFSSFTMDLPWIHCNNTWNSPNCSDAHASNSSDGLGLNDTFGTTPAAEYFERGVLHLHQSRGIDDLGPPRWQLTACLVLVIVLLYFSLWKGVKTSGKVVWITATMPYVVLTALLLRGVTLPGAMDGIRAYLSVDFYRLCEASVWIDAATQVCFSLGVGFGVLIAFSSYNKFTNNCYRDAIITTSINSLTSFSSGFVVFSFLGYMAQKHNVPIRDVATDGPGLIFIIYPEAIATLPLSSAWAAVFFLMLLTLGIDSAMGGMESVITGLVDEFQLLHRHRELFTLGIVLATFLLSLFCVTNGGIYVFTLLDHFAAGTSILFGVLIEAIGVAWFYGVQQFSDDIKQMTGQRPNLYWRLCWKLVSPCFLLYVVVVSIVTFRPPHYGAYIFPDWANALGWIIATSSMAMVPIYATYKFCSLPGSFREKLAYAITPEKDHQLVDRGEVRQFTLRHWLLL

Sequence of Sodium-dependent serotonin transporter (P31652 whole entry): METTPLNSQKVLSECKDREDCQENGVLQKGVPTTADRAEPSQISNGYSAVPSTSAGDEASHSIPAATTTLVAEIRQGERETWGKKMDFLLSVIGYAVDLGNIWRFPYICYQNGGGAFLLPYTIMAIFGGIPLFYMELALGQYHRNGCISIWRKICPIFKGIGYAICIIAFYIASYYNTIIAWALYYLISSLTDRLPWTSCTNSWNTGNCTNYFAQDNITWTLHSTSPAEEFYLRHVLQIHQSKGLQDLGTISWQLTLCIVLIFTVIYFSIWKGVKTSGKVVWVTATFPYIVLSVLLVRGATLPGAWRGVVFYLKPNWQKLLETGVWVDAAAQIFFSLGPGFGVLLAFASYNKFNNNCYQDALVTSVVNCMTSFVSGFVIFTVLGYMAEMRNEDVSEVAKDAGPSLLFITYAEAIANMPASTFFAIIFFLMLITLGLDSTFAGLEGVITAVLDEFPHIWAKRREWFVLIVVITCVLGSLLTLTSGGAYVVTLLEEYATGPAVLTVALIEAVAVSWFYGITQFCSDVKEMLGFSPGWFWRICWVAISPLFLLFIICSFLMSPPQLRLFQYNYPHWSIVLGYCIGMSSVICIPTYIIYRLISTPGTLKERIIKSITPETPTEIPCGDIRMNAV

| Structure (SMILES) | Ki [1] | Ki [2] | Ki [3] |
| --- | --- | --- | --- |
| c1ccc(CCCN2CCN(CCOC(c3ccccc3)c3ccccc3)CC2)cc1 [GBR-12935] | 277 nM | – | – |
| CC(C)(N)Cc1ccc(Cl)cc1 [CAS_461-78-9] | 451 nM | 338 nM | 3940 nM |
| CC(C)(N)Cc1ccccc1 [2-methyl-1-phenylpropan-2-amine] | 244 nM | > 10000 nM | 1580 nM |
| C[C@H](N)Cc1ccccc1 [beta-aminopropylbenzene] | 38.9 nM | – | – |
| NCCc1ccc(O)cc1 | 72.5 nM | 1560 nM | 106 nM |
| COC(=O)C1C2CC[C@H](C[C@@H]1c1ccc(N)cc1)N2C (stereo partly drawn) [(3S,8R)-3-(4-Amino-phenyl)-8-methyl-8-aza-bicyclo[3.2.1]octane-2-carboxylic acid methyl ester] | – | – | 2.15 nM |
| O[C@]1(c2ccc(Cl)cc2)c2ccccc2C2=NCCN21 [Mazanor] | 2.88 nM | 272 nM | 25.9 nM |
| NC1=NCC(c2ccccc2)O1 (stereo not drawn) [CAS_2207-50-3] | 54.5 nM | 1240 nM | 216 nM |
| NCC(O)c1ccc(O)c(O)c1 (stereo not drawn) [Noradrenaline,(+)] | 63.9 nM | > 10000 nM | 357 nM |
| COC(=O)[C@H]1[C@@H](c2ccc(I)cc2)C[C@@H]2CC[C@H]1N2C [RTI 55, (exo,exo)-isomer, Iodine (125) labeled] | 5.89 nM | 1 nM | 0.83 nM |
| CN1[C@H]2CC[C@@H]1[C@@H](C(=O)N1CCCC1)[C@@H](c1ccc(I)cc1)C2 [RTI-229] | 19.5 nM | 362 nM | – |
| CN[C@@H](C)[C@H](O)c1ccccc1 [Ephedrine,(-)] | 225 nM | > 10000 nM | 4400 nM |
| NCCc1ccc(O)c(O)c1 | 40.3 nM | 6490 nM | – |
| CN[C@@H](C)Cc1ccccc1 [METHAMPHETAMINE (+)] | 48 nM and 234 nM | – | – |
| CCNC(C)Cc1cccc(C(F)(F)F)c1 (stereo not drawn) [NSC_3337] | – | – | > 10000 nM |
| CN[C@@H](C)Cc1ccc2c(c1)OCO2 [DL-(3,4-Methylenedioxy)methamphetamine] | 462 nM | 238 nM | 1570 nM |
| NCCc1c[nH]c2ccc(O)cc12 [[3H]-5-HT] | 3010 nM | – | 2700 nM |
